Experimental data: patent US20260374766A1, “METHODS FOR TREATING CANCER” (Antares Therapeutics, Inc., priority 2022, published 2026)
Where two headings read alike, the source gives them in different places.

Tests used:
NUGC3 p53 Y220C = assay: Cell Proliferation Assay (CellTiter-Glo, CTG), NUGC3 p53 Y220C; assay type: cell-based; settings: Homo sapiens, NUGC-3, 120 h, 5 days
Procedure: (§1) Inducible p53 Y220C and R273H constructs (Tet-One inducible expression system; Takara) were stably expressed in NClH1299 cells by lentiviral transduction. NUGC3, A549, BxPC3, T3M4, HuH7, HCC2935, MFE296, NClH1299, NClH1299-inducible p53 Y220C, and NClH1299-inducible p53 R273H cell lines were used for cell proliferation assay. 250-500 cells were seeded in each well of 384 plate and then compounds were dispensed into each well using Echo or Tecan. After 5 days of incubation, equal volume of CellTiter-Glo reagent (G7570; Promega) was added into each well and the plate was incubated at room temperature for 10 minutes with shaking. The luminescent signal was measured by PheraStar microplate reader and IC50 was calculated.

H1299 p53 R273H = assay: Cell Proliferation Assay (CellTiter-Glo, CTG), H1299 p53 R273H (NClH1299-inducible p53 R273H); assay type: cell-based; settings: Homo sapiens, NCI-H1299, 120 h, 5 days
Procedure: as §1

p53 Y220C = p53 Y220C (Homo sapiens, UniProt P04637, Y220C); assay: Luciferase Reporter Assay (Luc), p53 response element, NClH1299 cells with inducible p53 Y220C; assay type: cell-based; settings: 6 hour; for AC50: read-out: Luc P53 Y220C AC50
Procedure: Luciferase Reporter Assay Protocol
The cells were then used for p53 reporter assay. 5,000 cells were seeded in each well of 384 plate and cultured in 0.5 ug/mL doxycycline (D3072; Sigma) containing medium for 24 hours before compound treatment. After 6 hour of compound treatment, equal volume of One-Glo reagent (E6110; Promega) was added to each well and the plate was incubated for 5 minutes with shaking at room temperature. The luciferase activity was immediately measured with PheraStar microplate reader.

H1299 p53 Y220C = assay: Cell Proliferation Assay (CellTiter-Glo, CTG), H1299 p53 Y220C (NClH1299-inducible p53 Y220C); assay type: cell-based; settings: Homo sapiens, NCI-H1299, 120 h, 5 days
Procedure: as §1

[1] = biological target: T1, p53 Y220C mutant protein (amino acid residues 94-293) (Homo sapiens, UniProt P04637, Y220C); assay: Surface Plasmon Resonance (SPR) assay, Kd_kinetic; assay type: binding; settings: SPR, p53 Y220C, read-out: SPR P53 Y220C KD kinetic
T1 construct: p53 Y220C mutant protein (amino acid residues 94-293)
Procedure: Surface Plasmon Resonance (SPR) Assay Protocol
SPR experiments were performed on a Biacore 8K instrument. […] The running buffer contained 50 mM Tris, pH 7.5, 100 mM NaCl, 1 mM DTT, 0.01% Brij35, 0.05% Tween-20 and 1% DMSO. The assay temperature was maintained at 16 or 20 °C and data were fit into the 1:1 binding model using the Biacore Insight Evaluation software.

[2] = NClH1299-inducible p53 R273H cells, CellTiter-Glo
[3] = AC50, luciferase reporter, NClH1299 inducible p53 Y220C
[4] = Emax, luciferase reporter, NClH1299 inducible p53 Y220C
[5] = NClH1299-inducible p53 Y220C cells, CellTiter-Glo

T1 sequence (P04637 94-293, stated change not applied): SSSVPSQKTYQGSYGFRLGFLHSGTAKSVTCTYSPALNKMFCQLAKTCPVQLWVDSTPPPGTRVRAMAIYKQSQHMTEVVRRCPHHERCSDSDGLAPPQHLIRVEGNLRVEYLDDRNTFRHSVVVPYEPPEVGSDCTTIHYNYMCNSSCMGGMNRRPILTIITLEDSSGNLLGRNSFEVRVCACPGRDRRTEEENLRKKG

SMILES | IC50 (NUGC3 p53 Y220C; NUGC3 cells, CellTiter-Glo) [nM] | IC50 (H1299 p53 R273H; [2]) [nM] | AC50 (p53 Y220C; [3]) [nM] | Emax (p53 Y220C; [4]) [%] | IC50 (H1299 p53 Y220C; [5]) [nM] | Kd [1] [nM] | IC50 (NUGC3 p53 Y220C; NUGC3 cells) [nM] | IC50 (H1299 p53 R273H; NClH1299-inducible p53 R273H cells) [nM] | AC50 (p53 Y220C; AC50, NClH1299 cells with inducible p53 Y220C) [nM] | Emax (p53 Y220C; Emax, NClH1299 cells with inducible p53 Y220C, 10 uM tool compound as positive control) [%] | IC50 (H1299 p53 Y220C; NClH1299-inducible p53 Y220C cells) [nM] | IC50 (NUGC3 p53 Y220C; CellTiter-Glo, NUGC3 p53 Y220C) [nM] | IC50 (H1299 p53 R273H; CellTiter-Glo, H1299 p53 R273H) [nM] | Emax (p53 Y220C; luciferase reporter, NClH1299 inducible p53 Y220C, 10 uM tool compound as positive control) [%] | AC50 (p53 Y220C; luciferase reporter, NClH1299 inducible p53 Y220C) [nM] | IC50 (H1299 p53 Y220C; CellTiter-Glo, H1299 p53 Y220C) [nM] | Kd ([1]; kinetic KD) [nM]
COc1cc(P(C)(C)=O)cnc1NCC#Cc1cc2c(N[C@@H]3CCN(C)C[C@@H]3F)cccn2c1SC(F)(F)F [Example 402, 2-(3-{[5-(dimethylphosphoryl)-3-methoxypyridin-2-yl]amino}prop-1-yn-1-yl)-N-[(3S,4R)-3-fluoro-1-methylpiperidin-4-yl]-3-[(trifluoromethyl)sulfanyl]indolizin-8-amine] | < 750 | ≥ 10000 | < 750 | 80 to 90 | < 750 | < 10 | – | – | – | – | – | – | – | – | – | – | –
CNC(=O)c1ccc(C(=O)NC)c(NCC#Cc2cc3c(N[C@@H]4CCN(C)C[C@@H]4F)cccn3c2SC(F)(F)F)c1 [Example 508] | – | – | – | – | – | < 10 | < 750 | 8000 to 10000 | < 750 | > 90 | < 750 | – | – | – | – | – | –
COc1cc(C(=O)NCC2(O)CC2)ccc1NCC#Cc1cc2c(N[C@@H]3CCNC[C@@H]3F)cccn2c1SC(F)(F)F [Example 387] | < 750 | 5000 to 8000 | < 750 | 80 to 90 | < 750 | < 10 | – | – | – | – | – | – | – | – | – | – | –
CNC(=O)c1ccc(NCC#Cc2cc3c(N[C@@H]4CCN(C)C[C@@H]4F)cccn3c2SC(F)(F)F)c(OC2COC2)c1 [Example 405] | < 750 | ≥ 10000 | < 750 | > 90 | < 750 | < 10 | – | – | – | – | – | – | – | – | – | – | –
CNC(=O)c1ccc(NCC#Cc2cc3c(N[C@@H]4CCN(C)C[C@@H]4F)cccn3c2SC(F)(F)F)c(OC)n1 [Example 433, 5-{[3-(8-{[(3S,4R)-3-fluoro-1-methylpiperidin-4-yl]amino}-3-[(trifluoromethyl)sulfanyl]indolizin-2-yl)prop-2-yn-1-yl]amino}-6-methoxy-N-methylpyridine-2-carboxamide] | < 750 | 5000 to 8000 | < 750 | > 90 | < 750 | < 10 | – | – | – | – | – | – | – | – | – | – | –
CNC(=O)c1ccc(OC)c(NCC#Cc2cc3c(N[C@@H]4CNC[C@@H]4F)nccn3c2SC(F)(F)F)n1 [Example 210] | – | – | – | – | – | – | – | – | – | – | – | 750 to 1500 | ≥ 10000 | 80 to 90 | 750 to 1500 | 750 to 1500 | < 10
O=C(N[C@H]1C[C@@H](O)C1)c1ccc(NCC#Cc2cc3c(N[C@@H]4CCNC[C@@H]4F)cccn3c2SC(F)(F)F)cc1 [Example 391] | < 750 | ≥ 10000 | < 750 | 80 to 90 | < 750 | < 10 | – | – | – | – | – | – | – | – | – | – | –
CNC(=O)c1ccc(OC)c(NCC#Cc2nc3c(N[C@@H]4[C@@H]5CC[C@H]4NC5)cccn3c2SC(F)(F)F)c1 [Example 247] | 750 to 1500 | 8000 to 10000 | 1500 to 3000 | 70 to 80 | 1500 to 3000 | < 10 | – | – | – | – | – | – | – | – | – | – | –
CNC(=O)c1ccc(NCC#Cc2nc3c(N[C@@H]4CCN(C)C[C@@H]4F)cccn3c2SC(F)(F)F)c(F)c1 [Example 311] | < 750 | 5000 to 8000 | < 750 | > 90 | < 750 | < 10 | – | – | – | – | – | – | – | – | – | – | –
COc1ccc(C(=O)NCC2CN(C)C2)cc1NCC#Cc1nc2c(N[C@@H]3CCOC[C@@H]3F)cccn2c1SC(F)(F)F [Example 228] | < 750 | ≥ 10000 | > 3000 | < 70 | > 3000 | < 10 | – | – | – | – | – | – | – | – | – | – | –
CNC(=O)c1ccc(NCC#Cc2cc3c(N[C@@H]4CNC[C@@H]4F)cccn3c2SC(F)(F)F)c(OC)c1 [Example 392] | < 750 | ≥ 10000 | < 750 | 80 to 90 | < 750 | < 10 | – | – | – | – | – | – | – | – | – | – | –
CNC(=O)c1ccc(NCC#Cc2cc3c(N[C@@H]4CN(C)C[C@@H]4F)cccn3c2SC(F)(F)F)c(OC)c1 [Example 386] | < 750 | ≥ 10000 | < 750 | > 90 | < 750 | < 10 | – | – | – | – | – | – | – | – | – | – | –
